# Data reported in paper PMC12920294, “Optimizing uPAR-targeting radiopeptides for improved tissue distribution: progress towards radionuclide therapy” (European Journal of Nuclear Medicine and Molecular Imaging, 2025).
# Read-outs that look alike come from different tables or passages of the source.
# Assays:
# human serum albumin = human serum albumin (Homo sapiens, UniProt P02768); assay type: in vitro ADME; parameters: tissue Stiftung Blutspende SRK Aargau-Solothurn, Switzerland; host or cells: human blood plasma
# Chain of human serum albumin (P02768 25-609): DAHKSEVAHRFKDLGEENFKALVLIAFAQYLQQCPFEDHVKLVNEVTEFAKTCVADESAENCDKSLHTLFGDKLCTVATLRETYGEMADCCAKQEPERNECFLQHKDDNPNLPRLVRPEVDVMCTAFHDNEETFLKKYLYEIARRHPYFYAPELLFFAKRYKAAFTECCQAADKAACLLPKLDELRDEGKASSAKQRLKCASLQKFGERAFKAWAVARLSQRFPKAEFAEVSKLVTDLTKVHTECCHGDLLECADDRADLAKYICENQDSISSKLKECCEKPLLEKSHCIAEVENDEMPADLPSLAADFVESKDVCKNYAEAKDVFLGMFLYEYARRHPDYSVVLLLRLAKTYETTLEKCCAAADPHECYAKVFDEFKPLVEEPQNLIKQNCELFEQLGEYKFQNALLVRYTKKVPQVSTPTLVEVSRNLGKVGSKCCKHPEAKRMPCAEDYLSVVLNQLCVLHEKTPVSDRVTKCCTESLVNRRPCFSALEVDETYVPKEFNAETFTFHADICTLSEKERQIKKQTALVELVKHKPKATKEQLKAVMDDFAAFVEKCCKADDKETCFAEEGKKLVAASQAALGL
# in vivo = conditions: CD1 nude, mouse, 0.5 nmol/mouse, total radioactivity
# Procedure: (§1) HEK-uPAR xenografted mice were injected with the respective radiopeptide (5 MBq, 0.5 nmol/mouse, 100 µL 0.9% NaCl containing 0.05% BSA) and sacrificed at 4 h and 24 h after injection. […] The tissues and organs of interest were collected, weighed and counted for activity using a γ-counter (Wallac Wizard 1480, PerkinElmer). […] The results were presented as the average ± SD of n = 3 mice. The time-activity curves were determined for the uptake of [^177Lu]Lu-DOTA-AE105 and [^177Lu]Lu-uPAR-11 in the blood, HEK-uPAR xenografts, kidneys and liver based on non-decay corrected biodistribution data. For the blood, the initial uptake (t = 0) was set as 50% IA/g assuming a blood volume of 2 mL for CD1 nude mice. The initial uptake value (t = 0) for all other organs and tissues was set as 0% IA/g. […] The area under the curves over 48 h after injection (AUC0h→48 h) was calculated using GraphPad Prism software (version 10.1.1). Statistical analyses were performed by applying a one-way ANOVA test with a Dunnet’s multiple comparison post‐test to compare the data of the new radiopeptides with those of [^177Lu]Lu-DOTA-AE105 and a Tukey’s multiple comparisons post‐test to compare the novel radiopeptides among them. A p-value of < 0.05 was considered a statistically significant difference using GraphPad Prism software (version 10.1.1).
# [1] = test system: HEK-uPAR xenograft-bearing mice; conditions: mouse, in vivo
# Procedure: as §1
# mouse serum albumin = target: T1, mouse serum albumin (Mus musculus, UniProt P07724); assay type: in vitro ADME
# T1 construct: tissue Rockland Immunochemicals Inc., USA Lot: 32321; host or cells: mouse blood plasma
# T1 sequence (P07724 25-608): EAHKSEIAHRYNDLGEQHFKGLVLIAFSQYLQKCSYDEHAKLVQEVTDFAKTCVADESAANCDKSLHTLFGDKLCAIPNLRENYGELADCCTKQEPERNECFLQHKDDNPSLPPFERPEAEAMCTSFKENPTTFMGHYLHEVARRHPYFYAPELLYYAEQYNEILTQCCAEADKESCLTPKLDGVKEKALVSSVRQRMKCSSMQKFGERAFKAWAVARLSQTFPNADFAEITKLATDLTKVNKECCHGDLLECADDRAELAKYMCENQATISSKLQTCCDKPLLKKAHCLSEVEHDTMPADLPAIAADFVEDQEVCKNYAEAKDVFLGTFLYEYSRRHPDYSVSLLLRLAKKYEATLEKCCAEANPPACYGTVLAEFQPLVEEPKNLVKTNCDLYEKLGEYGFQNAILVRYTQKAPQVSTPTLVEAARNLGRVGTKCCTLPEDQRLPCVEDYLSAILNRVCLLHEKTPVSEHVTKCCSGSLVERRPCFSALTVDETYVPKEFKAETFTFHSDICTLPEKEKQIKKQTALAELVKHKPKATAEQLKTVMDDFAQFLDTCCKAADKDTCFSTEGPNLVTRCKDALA
# [2] = assay type: in vitro ADME; conditions: 1 µM
# How it was run: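 ^177Lu-labeled peptides (50 MBq/nmol) were incubated at 10 MBq/200 µL in mouse or human plasma at 37 °C, with saline controls, and analysed by RP-18 TLC (ACN/citrate pH 5.5) with phosphor imaging at 1, 4 and 24 h. […]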
smiles,measurement,setting,value
"Cc1ccc(CCCC(=O)NCCOCCOCCOCCOCCC(=O)NCCCC[C@H](NC(=O)CC[C@H](C(=O)O)N2CCN(CC(=O)O)CCN(CC(=O)O)CCN(CC(=O)O)CC2)C(=O)N[C@@H](CC(=O)O)C(=O)N[C@@H](CC2CCCCC2)C(=O)N[C@@H](Cc2ccccc2)C(=O)N[C@H](CO)C(=O)N[C@H](CCCNC(=N)N)C(=O)N[C@@H](Cc2ccc(O)cc2)C(=O)N[C@@H](CC(C)C)C(=O)N[C@@H](Cc2c[nH]c3ccccc23)C(=O)N[C@@H](CO)C(N)=O)cc1 [[^177Lu]Lu-uPAR-17, metal not drawn]",Inverse relative albumin-binding affinity,human serum albumin,0.65
same,tissue uptake at 4 h,in vivo; Blood uptake,6 ± 1.3 %ID/g
same,tissue uptake at 24 h,in vivo; Blood uptake,< 0.03 %ID/g
same,tissue uptake at 4 h,in vivo; Bone uptake,0.82 ± 0.1 %ID/g
same,tissue uptake at 24 h,in vivo; Bone uptake,0.06 ± 0.01 %ID/g
same,tissue uptake at 4 h,in vivo; Brain uptake,0.13 ± 0.04 %ID/g
same,tissue uptake at 24 h,in vivo; Brain uptake,< 0.03 %ID/g
same,tissue uptake at 4 h,in vivo; HEK-uPAR xenograft uptake,8 ± 0.7 %ID/g
same,tissue uptake at 24 h,in vivo; HEK-uPAR xenograft uptake,2.1 ± 0.5 %ID/g
same,tissue uptake at 4 h,in vivo; Heart uptake,2.2 ± 0.4 %ID/g
same,tissue uptake at 24 h,in vivo; Heart uptake,0.07 ± 0.01 %ID/g
same,tissue uptake at 4 h,in vivo; Intestines uptake,0.87 ± 0.18 %ID/g
same,tissue uptake at 24 h,in vivo; Intestines uptake,0.05 ± 0.01 %ID/g
same,tissue uptake at 4 h,in vivo; Kidneys uptake,4.6 ± 0.3 %ID/g
same,tissue uptake at 24 h,in vivo; Kidneys uptake,1.3 to 1.7 %ID/g
same,tissue uptake at 4 h,in vivo; Liver uptake,1.7 ± 0.2 %ID/g
same,tissue uptake at 24 h,in vivo; Liver uptake,0.21 ± 0.03 %ID/g
same,tissue uptake at 4 h,in vivo; Lung uptake,3 ± 0.7 %ID/g
same,tissue uptake at 24 h,in vivo; Lung uptake,0.12 ± 0.02 %ID/g
same,tissue uptake at 4 h,in vivo; Muscle uptake,0.57 ± 0.1 %ID/g
same,tissue uptake at 24 h,in vivo; Muscle uptake,< 0.03 %ID/g
same,tissue uptake at 4 h,in vivo; Pancreas uptake,0.82 ± 0.17 %ID/g
same,tissue uptake at 24 h,in vivo; Pancreas uptake,0.04 ± 0.01 %ID/g
same,tissue uptake at 4 h,in vivo; Salivary glands uptake,1.2 ± 0.3 %ID/g
same,tissue uptake at 24 h,in vivo; Salivary glands uptake,0.12 ± 0.03 %ID/g
same,tissue uptake at 4 h,in vivo; Spleen uptake,1 ± 0.2 %ID/g
same,tissue uptake at 24 h,in vivo; Spleen uptake,0.13 ± 0.02 %ID/g
same,tissue uptake at 4 h,in vivo; Stomach uptake,0.73 ± 0.29 %ID/g
same,tissue uptake at 24 h,in vivo; Stomach uptake,0.05 ± 0.01 %ID/g
same,Kidneys uptake,"[1]; CD1 nude, 0.5 nmol/mouse, 24 h",1.3 ± 0.2 %IA/g
same,Xgrft-to-liver ratio,[1],10 ± 3
same,Albumin-binding affinity relative to [177Lu]Lu-uPAR-11,mouse serum albumin,0.50‒0.77
same,"Albumin-binding properties, relative values (inverse B50 ratio)",mouse serum albumin,0.77
same,"Human blood plasma stability, intact radiopeptide",[2]; 1 h,100 ± 1%
same,"Mouse blood plasma stability, intact radiopeptide",[2]; 1 h,100 ± 1%
same,"Human blood plasma stability, intact radiopeptide",[2]; 4 h,99 ± 1%
same,"Mouse blood plasma stability, intact radiopeptide",[2]; 4 h,97 ± 2%
same,"Human blood plasma stability, intact radiopeptide",[2]; 24 h,96 ± 1%
same,"Mouse blood plasma stability, intact radiopeptide",[2]; 24 h,61 ± 9%
